Measurements: US20230321101A1, “METHODS AND USES OF HALOFUGINONE” (The Regents of the University of California, priority 2020, published 2023)
Entries after “also recorded” stand apart in the source; their conditions may differ. Read-outs that look alike come from different tables or passages of the source.

Experiments:
[1] = system: cell surface heparan sulfate of Hep3B cells; test: Heparan sulfate presentation by anti-HS mAb 10E4 staining of Hep3B cells; format: cell-based, human; settings: for effect on halofuginone-induced reduction in heparan sulfate production (10E4 binding): co-incubated with halofuginone
[2] = system: recombinant SARS-CoV-2 spike RBD protein binding to Hep3B cells; settings: for effect on halofuginone-induced reduction in spike protein binding: co-incubated with halofuginone; for decrease of SARS-CoV-2 RBD binding compared to excipient control (DMSO): 18 h
DENV-2 (Dengue) = test: DENV-2 antiviral immunofluorescence assay in Huh7 cells; format: cell-based
Description: (§1) Experimental Procedure. The antiviral activity of 8 dilutions of each compound was explored by adding the drug to the assay cells 2 h after infection with the different viruses. Virus and compounds were left on the cells for the entire duration of the experiment (28 h for Zika virus and 24 h for all other viruses). The cytotoxicity of the same range of concentrations of compounds was determined by LDH release assay in the same cell lines.
(§2) Cell plating. Cells were detached and counted following SOP-RA 003 and SOP-RA 004. Count was recorded in the Cell Count Logbook, Volume 1. For each virus four plates were seeded, two for the antiviral assay and two for the cytotoxicity assay. Cells were seeded in 100 μl/well of complete media at the following densities: • Huh7: 8,000 cells/well (Dengue) • SH-SY5Y: 10,000 cells/wells (Zika) • HeLa Tzmbl: 8,000 cells/well (HIV)
(§3) Compounds dilutions. The 22.1 mM stocks were further diluted to 1 mM in DMSO by adding 211 μl of DMSO to 10 μl of compound. Three serial dilutions were prepared in different media for different viruses/cells. For each dilution, drugs were prepared at twice the final concentration in 50 μl volume, because they are diluted to the final concentration by an equal volume of virus or media.
(§4) Infection. Cells were infected in 50 μl of supplemented media/well at the following multiplicity of infection (MOI): • DENV-2, MOI 1 • ZIKV, MOI 5 • HIV, MOI 0.5
(§5) After removing culture media from cells, 50 μl of virus dilution were added to all wells except Column 11 (uninfected control), where the same volume of supplemented media was added. […]
(§6) Infectivity readout. […] The primary antibodies were detected with an Alexa-488 conjugate secondary antibody (Life Technologies, A11001), and nuclei were stained with Hoechst. Images were acquired on a CellInsight CX5 high content platform (Thermo Scientific) using a 4× objective, and percentage infection calculated using CellInsight CX5 software (infected cells/total cells×100).
(§7) Determination of % Inhibition—IF assay. Normalized percentages of inhibition were calculated using the following formula: […]

ZIKV (Zika virus) = test: ZIKV antiviral immunofluorescence assay in SH-SY5Y cells; format: cell-based
Description: as §1, §2, §3, §4, §5, §6, §7

HIV-1 = HIV-1 antiviral immunofluorescence assay in HeLa Tzmbl cells; format: cell-based; settings: HeLa Tzmbl
Description: as §1, §2, §3, §4, §5, §6, §7

authentic SARS-CoV-2 = test: microbe, parasite or virus in culture; format: cell-based
Vero E6 cells = test: Cell number of Vero E6 cells treated for 24 h; format: cell-based, African green monkey; settings: Vero E6, 24 h
Description: FIG. 32A and FIG. 32B. […] A-B, Measurement of authentic SARS-CoV-2 infection and cell number in Vero E6 cells treated with (A) halofuginone (HF) or (B) the 2R,3S-(+) enantiomer for 24 h. Data shown as mean±S.D.

[3] = Severe acute respiratory syndrome coronavirus 2, Vero C1008, read-out: IC50 of SARS-CoV-2 infection
[4] = ProSA at 50 μM, halofuginone 500 nM

Structure (SMILES) | effect on heparan sulfate presentation (10E4 binding) [1] | effect on spike (RBD) protein binding [2] | effect on authentic SARS-CoV-2 infection (authentic SARS-CoV-2; Vero E6) | further results
O=C(COc1ccc(Cl)cc1)NC1CCC(NC(=O)COc2ccc(Cl)cc2)CC1 (stereo not shown) [ISRIB] | Neither PERKi nor ISRIB affected 10E4 or spike RBD binding | Neither PERKi nor ISRIB affected 10E4 or spike RBD binding |  | effect on halofuginone-induced reduction in heparan sulfate production (10E4 binding) [1]: unable to attenuate the halofuginone-induced reduction in heparan sulfate production; also recorded: nor ISRIB reversed the halofuginone induced reduction in 10E4 or spike protein binding
CC(C)(C)OC(=O)N1CCCC(O)[C@H]1CC(=O)Cn1cnc2cc(Br)c(Cl)cc2c1=O (stereo partly shown) |  |  |  | antiviral activity against DENV-2 (DENV-2 (Dengue); Huh7): did not display antiviral activity; antiviral activity against ZIKV (ZIKV (Zika virus)): did not display antiviral activity; antiviral activity against HIV-1 (HIV-1): did not display antiviral activity
O=c1c2cc(Cl)c(Br)cc2ncn1C[C@H](O)C[C@H]1NCCC[C@@H]1O [halofuginol] | significantly decreased 10E4 and spike RBD binding | significantly decreased 10E4 and spike RBD binding | inhibited authentic SARS-CoV-2 infection of Vero E6 cells; also recorded: inhibit infection by authentic SARS-CoV-2 when provided at higher doses | inhibition of DENV-2 (DENV-2 (Dengue); Huh7, highest concentration tested (1000 nM)): ~60%; antiviral activity against ZIKV (ZIKV (Zika virus)): antiviral activity only against HIV-1; EC50 (HIV-1; MOI 0.5, drug added 2 h after infection, 24 h, read-out: EC50 HIV-1): 344 nM
Nc1ncnc2c1c(I)cn2[C@@H]1O[C@H](CO)[C@@H](O)[C@H]1O [5-Iodotubercidin] | reduced heparan sulfate presentation |  |  | 
O=C(C[C@H]1NCCC[C@@H]1O)Cn1cnc2cc(Br)c(Cl)cc2c1=O [2R,3S-(+) halofuginone] | inhibited HS production | inhibited HS production and authentic SARS-CoV-2 spike RBD protein binding | inhibit SARS-CoV-2 infection | IC50 (authentic SARS-CoV-2; Vero E6, read-out: IC50 of SARS-CoV-2 infectivity, enantiomer comparison): 12 nM; cell proliferation (cell number) (Vero E6 cells): inhibit SARS-CoV-2 infection and cell proliferation
CCN(CC)CCCC(C)Nc1ccnc2cc(Cl)ccc12 (stereo not shown) [chloroquine] |  |  |  | IC50 (authentic SARS-CoV-2; [3]): 1900 nM
CCC(CC)COC(=O)[C@H](C)N[P@](=O)(OC[C@H]1O[C@@](C#N)(c2ccc3c(N)ncnn23)[C@H](O)[C@@H]1O)Oc1ccccc1 [Remdesivir] |  |  |  | IC50 (authentic SARS-CoV-2; [3]): 8000 nM
Nc1ncnc2c1ncn2C1OC(COS(=O)(=O)NC(=O)[C@@H](N)CO)[C@@H](O)[C@H]1O (stereo partly shown) [SerSA, seryl-sulfamoyl adenosine] |  | Neither of these AARS inhibitors were able to significantly attenuate | Neither of these AARS inhibitors were able to significantly attenuate viral replication | 
Cn1cc(-c2ccc3c(c2)CCN3C(=O)Cc2cccc(C(F)(F)F)c2)c2c(N)ncnc21 [GSK2606414] | Neither PERKi nor ISRIB affected 10E4 or spike RBD binding | Neither PERKi nor ISRIB affected 10E4 or spike RBD binding |  | effect on halofuginone-induced reduction in heparan sulfate production (10E4 binding) [1]: reversed the halofuginone induced reduction in 10E4 or spike protein binding; effect on halofuginone-induced reduction in heparan sulfate production (10E4 binding) ([1]; listed as PERKi): unable to attenuate the halofuginone-induced reduction in heparan sulfate production; effect on halofuginone-induced reduction in spike protein binding [2]: reversed the halofuginone induced reduction in 10E4 or spike protein binding; effect on halofuginone-induced reduction in spike protein binding ([2]; listed as PERKi): unable to attenuate the halofuginone-induced reduction in heparan sulfate production and Spike protein binding
COc1cc2c(NC3CCN(C(C)C)CC3)nc(C3CCCCC3)nc2cc1OCCCN1CCCC1 [UNC0638] | increased the total amount of heparan sulfate |  |  | 
c1nn(C2CCOCC2)cc1Nc1ncc2nnn(-c3ccc4cn[nH]c4c3)c2n1 [GCN2-IN-1] | reduced in heparan sulfate production; also recorded: reduced 10E4 and spike RBD binding almost to the same extent as halofuginone |  |  | effect on halofuginone-induced reduction in heparan sulfate production (10E4 binding) [1]: reversed the halofuginone induced reduction in 10E4 or spike protein binding; effect on halofuginone-induced reduction in spike protein binding [2]: reversed the halofuginone induced reduction in 10E4 or spike protein binding
O=C(CC1NCCCC1O)Cn1cnc2cc(Br)c(Cl)cc2c1=O (single isomer, unassigned) [2S,3R-(−)enantiomer] |  |  | No inhibition was observed | 
Nc1ncnc2c1ncn2[C@@H]1O[C@H](COS(=O)(=O)NC(=O)[C@@H]2CCCN2)[C@@H](O)[C@H]1O [ProSA, prolyl-sulfamoyl adenosine] |  |  | inhibited authentic SARS-CoV-2 infection of Vero E6 cells; also recorded: inhibit infection by authentic SARS-CoV-2 when provided at higher doses | effect on heparan sulfate presentation ([1]; 1 μM): unable to inhibit heparan sulfate inhibition and Spike protein binding; effect on HS presentation (mAb 10E4 stain) [1, 4]: prevented HS presentation and spike RBD binding to similar levels as treatment with halofuginone; effect on Spike protein binding ([2]; 1 μM): unable to inhibit heparan sulfate inhibition and Spike protein binding; effect on spike RBD binding [2, 4]: prevented HS presentation and spike RBD binding to similar levels as treatment with halofuginone
Nc1ncn([C@H]2C[C@H](O)[C@@H](CO)O2)c(=O)n1 [5-Azadeoxycitidine] | reduced heparan sulfate presentation |  |  | 
CC(C)(C)OC(=O)N1CCC[C@H](O)[C@H]1CC(=O)Cn1cnc2cc(Br)c(Cl)cc2c1=O [MAZ1310] | had no effect | had no effect | did not have any activity | 
Nc1ncn([C@@H]2O[C@H](CO)[C@@H](O)[C@H]2O)c(=O)n1 [5-Azacytidine] | reduced heparan sulfate presentation |  |  | 
C/C=C1\NC(=O)[C@H]2CSSCC/C=C/[C@H](CC(=O)N[C@H](C(C)C)C(=O)N2)OC(=O)[C@H](C(C)C)NC1=O [Romidepsin] |  |  |  | decrease of SARS-CoV-2 RBD binding compared to excipient control (DMSO) ([2]; 1 μM): ~50%
O=C(/C=C/c1cccc(S(=O)(=O)Nc2ccccc2)c1)NO [Belinostat] | increased 10E4 staining | reduced spike protein by more than two-fold |  | decrease of SARS-CoV-2 RBD binding compared to excipient control (DMSO) ([2]; 5 μM): ~50%
C[C@@H]1C[C@H](C)C[C@H](C)[C@@H](O)CC(=O)O[C@H]([C@@H]2CCC[C@H]2C(=O)O)C/C=C/C=C(/C#N)[C@H](O)[C@@H](C)C1 [borrelidin] | Inhibits HS production | Neither of these AARS inhibitors were able to significantly attenuate | Neither of these AARS inhibitors were able to significantly attenuate viral replication | effect on spike (RBD) protein binding ([2]; listed as Borrelidin): not SARS-CoV-2 Spike RBD protein binding
CNC(=O)Nc1ccc2c(c1)CC[C@@]21OC(=O)N(CC(=O)N(Cc2ccc(F)cc2)[C@@H](C)C(F)(F)F)C1=O [A-485] | reduced heparan sulfate presentation |  |  | 
